Measured values reported in the kinase profiling compilation of Christmann-Franck et al. (2016).

Key:
Assay in all cases: KINOMEscan competition binding
Conditions in all cases: compound 10.0 µM
STK11 (human) = STK11 (human) (UniProt Q15831)
KDR (human) = KDR (human) (UniProt P35968)
ITK (human) = ITK (human) (UniProt Q08881)
ANKK1 (human) = ANKK1 (human) (UniProt Q8NFD2)
LIMK2 (human) = LIMK2 (human) (UniProt P53671)
NEK3 (human) = NEK3 (human) (UniProt P51956)
CSNK1E (human) = CSNK1E (human) (UniProt P49674)
ERBB3 (human) = ERBB3 (human) (UniProt P21860)
MARK4 (human) = MARK4 (human) (UniProt Q96L34)
STK3 (human) = STK3 (human) (UniProt Q13188)
MKNK1 (human) = MKNK1 (human) (UniProt Q9BUB5)
RPS6KB1 (human) = RPS6KB1 (human) (UniProt P23443)
TNK1 (human) = TNK1 (human) (UniProt Q13470)
PIP5K1A (human) = PIP5K1A (human) (UniProt Q99755)
INSR (human) = INSR (human) (UniProt P06213)
NEK9 (human) = NEK9 (human) (UniProt Q8TD19)
CASK (human) = CASK (human) (UniProt O14936)
BRSK1 (human) = BRSK1 (human) (UniProt Q8TDC3)
ACVR1 (human) = ACVR1 (human) (UniProt Q04771)
ROCK1 (human) = ROCK1 (human) (UniProt Q13464)
IKBKB (human) = IKBKB (human) (UniProt O14920)
EIF2AK2 (human) = EIF2AK2 (human) (UniProt P19525)
SBK1 (human) = SBK1 (human) (UniProt Q52WX2)
MAPK3 (human) = MAPK3 (human) (UniProt P27361)
DMPK (human) = DMPK (human) (UniProt Q09013)
TAOK3 (human) = TAOK3 (human) (UniProt Q9H2K8)
STK35 (human) = STK35 (human) (UniProt Q8TDR2)
NEK4 (human) = NEK4 (human) (UniProt P51957)
MATK (human) = MATK (human) (UniProt P42679)
VRK2 (human) = VRK2 (human) (UniProt Q86Y07)
MAP3K12 (human) = MAP3K12 (human) (UniProt Q12852)
STK38 (human) = STK38 (human) (UniProt Q15208)
CDKL3 (human) = CDKL3 (human) (UniProt Q8IVW4)
EIF2AK1 (human) = EIF2AK1 (human) (UniProt Q9BQI3)
PAK1 (human) = PAK1 (human) (UniProt Q13153)
SRC (human) = SRC (human) (UniProt P12931)
IRAK1 (human) = IRAK1 (human) (UniProt P51617)
PAK4 (human) = PAK4 (human) (UniProt O96013)
FGFR3 (human) = FGFR3 (human) (UniProt P22607)
LATS1 (human) = LATS1 (human) (UniProt O95835)
DDR1 (human) = DDR1 (human) (UniProt Q08345)

LATS1 (human), sequence (O95835 whole entry, looked up): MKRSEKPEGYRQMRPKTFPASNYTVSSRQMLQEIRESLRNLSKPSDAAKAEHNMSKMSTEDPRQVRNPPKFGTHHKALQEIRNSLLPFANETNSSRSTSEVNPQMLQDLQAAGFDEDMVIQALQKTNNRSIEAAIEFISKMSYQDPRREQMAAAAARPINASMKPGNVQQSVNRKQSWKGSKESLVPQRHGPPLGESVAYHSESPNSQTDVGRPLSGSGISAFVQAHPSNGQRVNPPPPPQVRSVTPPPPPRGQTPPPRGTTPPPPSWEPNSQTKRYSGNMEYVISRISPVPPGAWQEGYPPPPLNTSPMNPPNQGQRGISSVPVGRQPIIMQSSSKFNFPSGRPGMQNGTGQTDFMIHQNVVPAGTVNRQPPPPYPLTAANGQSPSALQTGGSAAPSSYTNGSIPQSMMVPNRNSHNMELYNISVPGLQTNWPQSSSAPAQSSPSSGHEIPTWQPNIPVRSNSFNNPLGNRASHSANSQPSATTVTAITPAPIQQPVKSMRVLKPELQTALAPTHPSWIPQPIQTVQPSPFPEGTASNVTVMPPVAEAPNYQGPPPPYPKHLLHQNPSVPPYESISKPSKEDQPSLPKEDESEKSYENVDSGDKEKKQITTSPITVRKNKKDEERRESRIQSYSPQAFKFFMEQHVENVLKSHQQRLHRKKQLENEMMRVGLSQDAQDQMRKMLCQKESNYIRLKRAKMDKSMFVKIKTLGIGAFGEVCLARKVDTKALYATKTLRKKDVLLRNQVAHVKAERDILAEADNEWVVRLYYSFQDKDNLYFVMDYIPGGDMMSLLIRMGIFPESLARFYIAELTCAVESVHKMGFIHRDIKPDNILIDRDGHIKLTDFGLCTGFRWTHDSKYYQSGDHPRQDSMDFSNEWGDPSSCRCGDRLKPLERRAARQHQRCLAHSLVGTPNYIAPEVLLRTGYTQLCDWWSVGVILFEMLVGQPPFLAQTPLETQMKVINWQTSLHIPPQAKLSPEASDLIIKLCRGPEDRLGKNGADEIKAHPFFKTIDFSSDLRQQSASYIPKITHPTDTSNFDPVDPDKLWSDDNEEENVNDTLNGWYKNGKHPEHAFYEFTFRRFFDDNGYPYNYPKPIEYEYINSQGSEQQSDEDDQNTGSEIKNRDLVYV
KDR (human), sequence (P35968 whole entry, looked up): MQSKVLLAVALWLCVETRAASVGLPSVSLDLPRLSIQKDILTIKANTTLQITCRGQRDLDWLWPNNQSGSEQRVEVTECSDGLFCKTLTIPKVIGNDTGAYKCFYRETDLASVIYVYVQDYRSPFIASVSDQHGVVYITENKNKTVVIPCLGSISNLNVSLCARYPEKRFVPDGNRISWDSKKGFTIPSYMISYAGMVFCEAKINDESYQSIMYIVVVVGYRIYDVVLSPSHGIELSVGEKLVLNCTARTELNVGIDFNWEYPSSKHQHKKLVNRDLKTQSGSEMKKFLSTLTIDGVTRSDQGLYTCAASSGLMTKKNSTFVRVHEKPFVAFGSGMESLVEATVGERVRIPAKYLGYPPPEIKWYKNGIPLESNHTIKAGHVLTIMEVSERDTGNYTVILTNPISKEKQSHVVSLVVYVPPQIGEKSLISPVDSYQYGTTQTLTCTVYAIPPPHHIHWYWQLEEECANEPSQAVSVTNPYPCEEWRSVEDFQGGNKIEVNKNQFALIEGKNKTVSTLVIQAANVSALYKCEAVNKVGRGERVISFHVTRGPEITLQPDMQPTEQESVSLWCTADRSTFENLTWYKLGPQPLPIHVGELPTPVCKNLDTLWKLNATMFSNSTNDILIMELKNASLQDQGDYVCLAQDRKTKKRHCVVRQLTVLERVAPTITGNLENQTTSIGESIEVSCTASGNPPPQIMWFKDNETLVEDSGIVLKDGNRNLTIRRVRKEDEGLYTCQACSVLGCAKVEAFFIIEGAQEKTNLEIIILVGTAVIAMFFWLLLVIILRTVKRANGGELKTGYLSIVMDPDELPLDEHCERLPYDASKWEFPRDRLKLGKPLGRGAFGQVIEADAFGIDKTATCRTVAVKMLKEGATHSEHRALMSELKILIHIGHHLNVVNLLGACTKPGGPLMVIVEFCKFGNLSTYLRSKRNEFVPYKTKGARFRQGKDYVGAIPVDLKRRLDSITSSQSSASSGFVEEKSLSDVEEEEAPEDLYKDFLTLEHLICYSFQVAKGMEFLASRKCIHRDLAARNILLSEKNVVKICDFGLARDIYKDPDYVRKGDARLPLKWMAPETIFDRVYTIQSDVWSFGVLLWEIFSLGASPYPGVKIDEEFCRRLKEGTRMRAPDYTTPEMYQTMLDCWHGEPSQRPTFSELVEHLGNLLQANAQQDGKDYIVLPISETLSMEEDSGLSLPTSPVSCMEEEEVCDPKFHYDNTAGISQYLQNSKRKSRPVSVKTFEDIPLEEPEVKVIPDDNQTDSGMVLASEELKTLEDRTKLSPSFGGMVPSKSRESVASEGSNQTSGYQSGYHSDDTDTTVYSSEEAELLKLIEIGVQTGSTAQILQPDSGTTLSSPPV
TAOK3 (human), sequence (Q9H2K8 whole entry, looked up): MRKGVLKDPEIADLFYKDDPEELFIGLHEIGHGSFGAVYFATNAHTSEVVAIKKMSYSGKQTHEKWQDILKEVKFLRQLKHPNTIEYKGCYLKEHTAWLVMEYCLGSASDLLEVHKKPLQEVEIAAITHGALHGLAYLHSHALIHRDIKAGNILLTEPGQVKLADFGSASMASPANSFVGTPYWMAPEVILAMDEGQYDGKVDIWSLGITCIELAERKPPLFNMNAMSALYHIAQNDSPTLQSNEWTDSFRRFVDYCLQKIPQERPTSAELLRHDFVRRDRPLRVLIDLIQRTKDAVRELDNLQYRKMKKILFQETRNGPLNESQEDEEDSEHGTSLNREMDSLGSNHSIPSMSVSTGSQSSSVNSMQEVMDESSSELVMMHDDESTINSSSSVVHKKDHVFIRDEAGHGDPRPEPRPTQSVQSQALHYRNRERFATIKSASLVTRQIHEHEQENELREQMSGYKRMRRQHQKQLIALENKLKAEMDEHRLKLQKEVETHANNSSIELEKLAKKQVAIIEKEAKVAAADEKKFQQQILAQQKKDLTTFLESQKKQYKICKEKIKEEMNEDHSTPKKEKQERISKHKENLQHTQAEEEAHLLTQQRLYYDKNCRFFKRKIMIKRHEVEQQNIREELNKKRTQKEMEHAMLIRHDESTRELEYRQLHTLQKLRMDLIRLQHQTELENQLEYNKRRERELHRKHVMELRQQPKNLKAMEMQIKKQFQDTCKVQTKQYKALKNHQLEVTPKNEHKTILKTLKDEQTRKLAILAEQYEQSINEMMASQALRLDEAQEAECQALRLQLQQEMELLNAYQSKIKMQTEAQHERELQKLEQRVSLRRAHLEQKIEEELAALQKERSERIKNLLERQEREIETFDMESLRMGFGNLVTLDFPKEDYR
MKNK1 (human), sequence (Q9BUB5 whole entry, looked up): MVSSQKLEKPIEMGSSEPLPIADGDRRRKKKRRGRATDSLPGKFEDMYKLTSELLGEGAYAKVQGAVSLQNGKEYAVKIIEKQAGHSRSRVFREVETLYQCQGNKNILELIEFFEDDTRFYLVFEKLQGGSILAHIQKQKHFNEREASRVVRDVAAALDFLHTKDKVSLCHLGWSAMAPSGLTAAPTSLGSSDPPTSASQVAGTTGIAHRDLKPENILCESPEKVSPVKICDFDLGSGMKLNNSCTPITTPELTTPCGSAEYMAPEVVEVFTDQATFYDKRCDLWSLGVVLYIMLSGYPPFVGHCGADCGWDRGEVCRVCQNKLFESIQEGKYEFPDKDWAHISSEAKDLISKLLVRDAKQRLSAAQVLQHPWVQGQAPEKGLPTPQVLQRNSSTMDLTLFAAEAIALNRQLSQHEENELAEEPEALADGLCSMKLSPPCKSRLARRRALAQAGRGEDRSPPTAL
ACVR1 (human), sequence (Q04771 whole entry, looked up): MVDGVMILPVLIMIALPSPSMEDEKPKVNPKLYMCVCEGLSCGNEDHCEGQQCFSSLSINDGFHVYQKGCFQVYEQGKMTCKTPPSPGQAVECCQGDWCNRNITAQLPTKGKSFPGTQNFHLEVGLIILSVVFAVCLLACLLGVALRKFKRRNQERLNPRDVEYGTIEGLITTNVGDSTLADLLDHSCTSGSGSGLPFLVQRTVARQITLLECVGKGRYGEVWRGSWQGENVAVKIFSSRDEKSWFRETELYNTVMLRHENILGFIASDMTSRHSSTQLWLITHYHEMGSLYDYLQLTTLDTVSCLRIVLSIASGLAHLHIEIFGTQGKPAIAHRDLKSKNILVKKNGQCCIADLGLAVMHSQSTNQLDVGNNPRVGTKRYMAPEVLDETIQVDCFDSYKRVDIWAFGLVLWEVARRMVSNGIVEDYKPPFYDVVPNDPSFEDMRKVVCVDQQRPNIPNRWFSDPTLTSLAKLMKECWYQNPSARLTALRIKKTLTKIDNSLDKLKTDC
VRK2 (human), sequence (Q86Y07 whole entry, looked up): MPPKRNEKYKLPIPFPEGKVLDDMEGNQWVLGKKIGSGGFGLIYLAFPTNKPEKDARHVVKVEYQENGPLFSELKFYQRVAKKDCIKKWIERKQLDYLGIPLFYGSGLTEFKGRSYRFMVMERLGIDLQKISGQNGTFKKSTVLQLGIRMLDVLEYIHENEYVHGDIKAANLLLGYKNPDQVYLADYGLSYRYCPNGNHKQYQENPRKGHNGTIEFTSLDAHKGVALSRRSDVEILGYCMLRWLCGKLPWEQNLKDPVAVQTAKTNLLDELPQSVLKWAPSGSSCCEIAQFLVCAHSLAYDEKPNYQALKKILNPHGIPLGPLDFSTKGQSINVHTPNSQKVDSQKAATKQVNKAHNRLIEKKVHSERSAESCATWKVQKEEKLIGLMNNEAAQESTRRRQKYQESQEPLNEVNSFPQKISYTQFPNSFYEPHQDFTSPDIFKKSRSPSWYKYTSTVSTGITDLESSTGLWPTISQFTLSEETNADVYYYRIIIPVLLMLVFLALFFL

CNC(=O)Nc1ccc(-c2nc(N3CC4CCC(C3)O4)c3cnn(C4CCC5(CC4)OCCO5)c3n2)cc1
kinase still bound, per cent of control (STK11 (human)): 80%
kinase still bound, per cent of control (KDR (human)): 76%
kinase still bound, per cent of control (ITK (human)): 88%
kinase still bound, per cent of control (ANKK1 (human)): 77%
kinase still bound, per cent of control (LIMK2 (human)): 88%
kinase still bound, per cent of control (NEK3 (human)): 100%
kinase still bound, per cent of control (CSNK1E (human)): 39%
kinase still bound, per cent of control (ERBB3 (human)): 100%
kinase still bound, per cent of control (MARK4 (human)): 94%
kinase still bound, per cent of control (STK3 (human)): 97%
kinase still bound, per cent of control (MKNK1 (human)): 100%
kinase still bound, per cent of control (RPS6KB1 (human)): 100%
kinase still bound, per cent of control (TNK1 (human)): 78%
kinase still bound, per cent of control (PIP5K1A (human)): 84%
kinase still bound, per cent of control (INSR (human)): 84%
kinase still bound, per cent of control (NEK9 (human)): 100%
kinase still bound, per cent of control (CASK (human)): 64%
kinase still bound, per cent of control (BRSK1 (human)): 100%
kinase still bound, per cent of control (ACVR1 (human)): 90%
kinase still bound, per cent of control (ROCK1 (human)): 100%
kinase still bound, per cent of control (IKBKB (human)): 79%
kinase still bound, per cent of control (EIF2AK2 (human)): 100%
kinase still bound, per cent of control (SBK1 (human)): 100%
kinase still bound, per cent of control (MAPK3 (human)): 97%
kinase still bound, per cent of control (DMPK (human)): 83%
kinase still bound, per cent of control (TAOK3 (human)): 90%
kinase still bound, per cent of control (STK35 (human)): 95%
kinase still bound, per cent of control (NEK4 (human)): 82%
kinase still bound, per cent of control (MATK (human)): 100%
kinase still bound, per cent of control (VRK2 (human)): 100%
kinase still bound, per cent of control (MAP3K12 (human)): 93%
kinase still bound, per cent of control (STK38 (human)): 100%
kinase still bound, per cent of control (CDKL3 (human)): 95%
kinase still bound, per cent of control (EIF2AK1 (human)): 100%
kinase still bound, per cent of control (PAK1 (human)): 100%
kinase still bound, per cent of control (SRC (human)): 75%
kinase still bound, per cent of control (IRAK1 (human)): 100%
kinase still bound, per cent of control (PAK4 (human)): 100%
kinase still bound, per cent of control (FGFR3 (human)): 83%
kinase still bound, per cent of control (LATS1 (human)): 95%
kinase still bound, per cent of control (DDR1 (human)): 66%

O=c1[nH]c2ccccc2n1C1CCN(Cc2ccc(-c3nc4cc5[nH]cnc5cc4nc3-c3ccccc3)cc2)CC1
kinase still bound, per cent of control (STK11 (human)): 94%
kinase still bound, per cent of control (KDR (human)): 86%
kinase still bound, per cent of control (ITK (human)): 97%
kinase still bound, per cent of control (ANKK1 (human)): 73%
kinase still bound, per cent of control (LIMK2 (human)): 100%
kinase still bound, per cent of control (NEK3 (human)): 84%
kinase still bound, per cent of control (CSNK1E (human)): 15%
kinase still bound, per cent of control (ERBB3 (human)): 100%
kinase still bound, per cent of control (MARK4 (human)): 99%
kinase still bound, per cent of control (STK3 (human)): 100%
kinase still bound, per cent of control (MKNK1 (human)): 77%
kinase still bound, per cent of control (RPS6KB1 (human)): 84%
kinase still bound, per cent of control (TNK1 (human)): 91%
kinase still bound, per cent of control (PIP5K1A (human)): 88%
kinase still bound, per cent of control (INSR (human)): 64%
kinase still bound, per cent of control (NEK9 (human)): 88%
kinase still bound, per cent of control (CASK (human)): 79%
kinase still bound, per cent of control (BRSK1 (human)): 100%
kinase still bound, per cent of control (ACVR1 (human)): 92%
kinase still bound, per cent of control (ROCK1 (human)): 66%
kinase still bound, per cent of control (IKBKB (human)): 79%
kinase still bound, per cent of control (EIF2AK2 (human)): 100%
kinase still bound, per cent of control (SBK1 (human)): 92%
kinase still bound, per cent of control (MAPK3 (human)): 100%
kinase still bound, per cent of control (DMPK (human)): 98%
kinase still bound, per cent of control (TAOK3 (human)): 84%
kinase still bound, per cent of control (STK35 (human)): 100%
kinase still bound, per cent of control (NEK4 (human)): 93%
kinase still bound, per cent of control (MATK (human)): 70%
kinase still bound, per cent of control (VRK2 (human)): 76%
kinase still bound, per cent of control (MAP3K12 (human)): 100%
kinase still bound, per cent of control (STK38 (human)): 62%
kinase still bound, per cent of control (CDKL3 (human)): 100%
kinase still bound, per cent of control (EIF2AK1 (human)): 87%
kinase still bound, per cent of control (PAK1 (human)): 90%
kinase still bound, per cent of control (SRC (human)): 81%
kinase still bound, per cent of control (IRAK1 (human)): 76%
kinase still bound, per cent of control (PAK4 (human)): 74%
kinase still bound, per cent of control (FGFR3 (human)): 92%
kinase still bound, per cent of control (LATS1 (human)): 93%
kinase still bound, per cent of control (DDR1 (human)): 86%

CCN(CCO)CCCOc1ccc2c(Nc3cc(CC(=O)Nc4cccc(F)c4)[nH]n3)ncnc2c1
kinase still bound, per cent of control (STK11 (human)): 80%
kinase still bound, per cent of control (KDR (human)): 2.7%
kinase still bound, per cent of control (ITK (human)): 96%
kinase still bound, per cent of control (ANKK1 (human)): 11%
kinase still bound, per cent of control (LIMK2 (human)): 100%
kinase still bound, per cent of control (NEK3 (human)): 100%
kinase still bound, per cent of control (CSNK1E (human)): 100%
kinase still bound, per cent of control (ERBB3 (human)): 35%
kinase still bound, per cent of control (MARK4 (human)): 100%
kinase still bound, per cent of control (STK3 (human)): 100%
kinase still bound, per cent of control (MKNK1 (human)): 68%
kinase still bound, per cent of control (RPS6KB1 (human)): 13%
kinase still bound, per cent of control (TNK1 (human)): 86%
kinase still bound, per cent of control (PIP5K1A (human)): 73%
kinase still bound, per cent of control (INSR (human)): 75%
kinase still bound, per cent of control (NEK9 (human)): 100%
kinase still bound, per cent of control (CASK (human)): 88%
kinase still bound, per cent of control (BRSK1 (human)): 64%
kinase still bound, per cent of control (ACVR1 (human)): 81%
kinase still bound, per cent of control (ROCK1 (human)): 67%
kinase still bound, per cent of control (IKBKB (human)): 91%
kinase still bound, per cent of control (EIF2AK2 (human)): 100%
kinase still bound, per cent of control (SBK1 (human)): 100%
kinase still bound, per cent of control (MAPK3 (human)): 100%
kinase still bound, per cent of control (DMPK (human)): 93%
kinase still bound, per cent of control (TAOK3 (human)): 100%
kinase still bound, per cent of control (STK35 (human)): 85%
kinase still bound, per cent of control (NEK4 (human)): 40%
kinase still bound, per cent of control (MATK (human)): 71%
kinase still bound, per cent of control (VRK2 (human)): 100%
kinase still bound, per cent of control (MAP3K12 (human)): 58%
kinase still bound, per cent of control (STK38 (human)): 56%
kinase still bound, per cent of control (CDKL3 (human)): 99%
kinase still bound, per cent of control (EIF2AK1 (human)): 5.2%
kinase still bound, per cent of control (PAK1 (human)): 100%
kinase still bound, per cent of control (SRC (human)): 43%
kinase still bound, per cent of control (IRAK1 (human)): 63%
kinase still bound, per cent of control (PAK4 (human)): 100%
kinase still bound, per cent of control (FGFR3 (human)): 92%
kinase still bound, per cent of control (LATS1 (human)): 100%
kinase still bound, per cent of control (DDR1 (human)): 12%
